Key:
Assay type in all cases: cell-based, human
hESCs = assay: Small molecule treatment of hESCs, expression of pluripotency and lineage markers (qPCR); conditions: for Gene expression levels of pluripotency markers NANOG and POU5F1: hESCs treated with individual chemicals for 4 days, FIG. 1C; for Expression level of lineage markers / Expression of NANOG and POU5F1: individual chemicals of combination 22, subcultured onto feeders, harvested after 4 days, FIG. 1F
Method: For routine culture of hESCs in TeSR1 (Stem cell technologies), cells were cultured feeder free on matrigel (BD). Cell media was changed daily. The hESCs were subcultured with 1 mg/ml Dispase (Stem cell technologies) every 5-7 days. 3iL hESCs culture medium contains 1 μM of PD0325901 (Sigma), 2 μM of BIO (Sigma), 2 μM of Dorsomorphin (Sigma) and 10 ng/ml human LIF (Millipore) in TeSR1. 3iL media are prepared fresh and stored at 4° C. for not more than 2 weeks. For treatment with 3iL conditions, hESCs cultured in TeSR1 was treated with 3iL 48 hrs post-seeding. The cells are subsequently subcultured on mitomycin C inactivated mouse fibroblast. Cells are dissociated to single cells using TrypLE (Life Technologies). 3iL medium is refreshed daily and cells are subcultured upon confluency. ROCK inhibitor Thiazovivin is added at a final concentration of 1 μM to enhance cell survival for the first few passages. 3iL hESCs used in all the experiments have been cultured for at least 10 passages for adequate conditioning to the new culture condition.
hESCs were dissociated with dispase and treatment starts 48 hrs post seeding. For single chemical and combinatorial chemical treatment, the small molecules are used at the following final concentrations: 0.5 μM A83-01 (Stemgent), 2 μM BIO (Sigma), 3 μM CHIR99021 (Stemgent), 2 μM Dorsomorphin (Sigma), 8 μM Forskolin (Stemgent), 2 μM IDE-1 (Stemgent), 0.5 μM PD153035 (Sigma), 1 μM PD173074 (Sigma), 1 μM PD0325901 (Sigma), 5 μM Pifithrin-α (Sigma) and 1 μM RepSox (Sigma). All small molecules are reconstituted in DMSO. For PI3K pathway inhibition, LY294002 (Sigma) was used at final concentration of 10 μM.

3iL hESCs = assay: Signaling pathway inhibitor treatment of 3iL hESCs (pluripotency markers, colony numbers); conditions: treated for 10 days, compared to 3iL hESC control, FIG. 4B
Method: The hESC line H1 (WA-01, passage 28) was used for this study. For routine culture of hESCs in TeSR1 (Stem cell technologies), cells were cultured feeder free on matrigel (BD). Cell media was changed daily. The hESCs were subcultured with 1 mg/ml Dispase (Stem cell technologies) every 5-7 days. 3iL hESCs culture medium contains 1 μM of PD0325901 (Sigma), 2 μM of BIO (Sigma), 2 μM of Dorsomorphin (Sigma) and 10 ng/ml human LIF (Millipore) in TeSR1. 3iL media are prepared fresh and stored at 4° C. for not more than 2 weeks. For treatment with 3iL conditions, hESCs cultured in TeSR1 was treated with 3iL 48 hrs post-seeding. The cells are subsequently subcultured on mitomycin C inactivated mouse fibroblast. Cells are dissociated to single cells using TrypLE (Life Technologies). […]
For expression analysis, total RNA was extracted using the TRIzol reagent (Invitrogen) with chloroform and precipitated with isopropanol. […] RNA concentration was determined with the NanoDrop 2000 (Thermo Scientific). 500 ng of RNA was used for each reverse transcription reaction using the SuperScript II Kit (Invitrogen) to produce the cDNA for subsequent quantitative assays. Quantitative real-time PCR (qPCR) analysis was performed with the SYBR Green Master Mix (KAPA) using the ABI PRISM 7900 sequence detection system. […] Samples were multiplexed and sequenced single read 76 bp (HiSeq 2000, Illumina). […]

LIF signaling = LIF signaling activity in hESCs (GP130, phosphorylated STAT3, STAT3 responsive genes, NANOG)
Method: For expression analysis, total RNA was extracted using the TRIzol reagent (Invitrogen) with chloroform and precipitated with isopropanol. The precipitated RNA was centrifuged at 13000 rpm at 4° C. for 10 min. The RNA pellet was washed with 70% ethanol and subsequently reconstituted with DEPC-treated water (AMBION). DNA contaminants were digested with DNASE I (Ambion) at 37° C. for 30 min. The DNASE I enzyme is heat inactivated at 70° C. for 10 min. RNA concentration was determined with the NanoDrop 2000 (Thermo Scientific). 500 ng of RNA was used for each reverse transcription reaction using the SuperScript II Kit (Invitrogen) to produce the cDNA for subsequent quantitative assays. Quantitative real-time PCR (qPCR) analysis was performed with the SYBR Green Master Mix (KAPA) using the ABI PRISM 7900 sequence detection system. For RNA-Seq library preparation, the total RNA was further purified by column (Purelink RNA Mini kit, Ambion). […] Samples were multiplexed and sequenced single read 76 bp (HiSeq 2000, Illumina).
hESCs were lysed with a lysis buffer (50 mM Tris-HCl, pH 8.0, 150 mM NaCl, 10 μM ZnCl, 0.5% Nonidet P-40, 5% glycerol) supplemented with protease inhibitor cocktail (Merck). Protein concentration was measured with a Bradford assay kit (Bio-Rad). […] After washing with PBST, signals were detected using the Western Blotting Luminol Reagents (Santa Cruz).

Molecule	Gene expression levels of pluripotency markers NANOG and POU5F1 (hESCs)	Expression of NANOG and POU5F1 (hESCs)	also measured
O=C1Nc2cc(Br)ccc2/C1=C1/Nc2ccccc2/C1=N\O [BIO, 6-bromoindirubin-3′-oxime]	downregulation	downregulated	Expression level of lineage markers (hESCs): stronger upregulation of T and GATA6
CCN(CC)CCCCNc1ncc2cc(-c3cc(OC)cc(OC)c3)c(NC(=O)NC(C)(C)C)nc2n1 [PD173074]	–	–	Pluripotency markers NANOG, OCT4 and TRA-1-60 in 3iL hESCs (3iL hESCs): loss of pluripotency markers
Cc1cccc(-c2nn(C(=S)Nc3ccccc3)cc2-c2ccnc3ccccc23)n1 [A83-01]	downregulation	–	Pluripotency markers NANOG, OCT4 and TRA-1-60 in 3iL hESCs (3iL hESCs): loss of pluripotency markers
O=C(NOC[C@H](O)CO)c1ccc(F)c(F)c1Nc1ccc(I)cc1F [PD03]	–	remains in a comparable range	Expression level of lineage markers (hESCs): increase in the PAX6 transcript
Cc1cccc(-c2[nH]ncc2-c2ccc3ncccc3n2)n1 [RepSOX]	downregulation	–	–
LIF: leukemia inhibitory factor, human recombinant	–	–	NANOG expression levels (LIF signaling; increasing amount of LIF under 3i treatment, 5 days, FIG. 4A): increased with the addition of LIF in a dosage dependent manner; STAT3 phosphorylation (LIF signaling; whole cell extracts, Western blot, FIG. 3H): weakly activates
c1cc(-c2cnn3cc(-c4ccc(OCCN5CCCCC5)cc4)cnc23)ccn1 [DOR, 6-[4-(2-Piperidin-1-ylethoxy)phenyl]-3-pyridin-4-ylpyrazolo[1,5-a]pyrimidine]	–	remains in a comparable range	–

Source: US10087416B2, “Culturing pluripotent stem cells” (Agency for Science, Technology and Research, priority 2013, dated 2018)
